# Test results taken from the supplement of paper PMC10307832.
# Experiments:
# Assay in all cases: relative viability (nuclei count vs DMSO), 5 days (fraction); higher = more cells survive
# [1] = test system: HCC-44
# Summary of the method: (§1)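 Nuclei were stained with Hoechst during a one-step fixation (final 0.05% Triton X-100, 1% formaldehyde, 1 ug/ml Hoechst) carried out 5 days after dosing, then counted on 4× images. The cells, lung cancer lines in 1536-well plates, had been dosed by pin tool the day after seeding with one drug alone or a fixed anchor-drug dose plus five library-drug doses (not always all listed) in √10 steps. Relative viability is the nuclei count in treated wells divided by that in vehicle wells, and each value is the median of duplicate plates.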
# [2] = test system: NCI-H1650
# Summary of the method: as §1
# [3] = test system: BEN
# Summary of the method: as §1
# [4] = test system: NCI-H1355
# Summary of the method: as §1
# [5] = test system: NCI-H520
# Summary of the method: as §1
# [6] = test system: SW 1573
# Summary of the method: as §1
# [7] = test system: 201T
# Summary of the method: as §1
# [8] = test system: NCI-H2228
# Summary of the method: as §1
# [9] = test system: NCI-H838
# Summary of the method: as §1
# [10] = test system: NCI-H1666
# Summary of the method: as §1
# [11] = test system: ABC-1
# Summary of the method: as §1
# [12] = test system: NCI-H727
# Summary of the method: as §1
# [13] = test system: HCC-366
# Summary of the method: as §1
# [14] = test system: NCI-H1734
# Summary of the method: as §1
# [15] = test system: NCI-H358
# Summary of the method: as §1
# [16] = test system: LOU-NH91
# Summary of the method: as §1
# [17] = test system: NCI-H2009
# Summary of the method: as §1
# [18] = test system: LK-2
# Summary of the method: as §1
# [19] = test system: NCI-H2347
# Summary of the method: as §1
# [20] = test system: NCI-H1755
# Summary of the method: as §1
# [21] = test system: NCI-H2405
# Summary of the method: as §1
# [22] = test system: UMC-11
# Summary of the method: as §1
# [23] = test system: HCC-78
# Summary of the method: as §1
smiles,measurement,setting,value
O=c1[nH]c2ccccc2n1C1CCN(CCCC(c2ccc(F)cc2)c2ccc(F)cc2)CC1 [Pimozide] + O=C(CCCCCCC(=O)Nc1ccccc1)NO [Vorinostat] (partner 1 µM),relative viability,[1]; first compound 0.08 µM,1.12
same,relative viability,[1]; first compound 0.253 µM,1.12
same,relative viability,[1]; first compound 0.8 µM,0.923
same,relative viability,[1]; first compound 2.53 µM,1.12
same,relative viability,[1]; first compound 8 µM,0.975
same,relative viability,[2]; first compound 0.08 µM,0.449
same,relative viability,[2]; first compound 0.253 µM,0.571
same,relative viability,[2]; first compound 0.8 µM,0.687
same,relative viability,[2]; first compound 2.53 µM,0.591
same,relative viability,[2]; first compound 8 µM,0.546
same,relative viability,[3]; first compound 0.08 µM,0.558
same,relative viability,[3]; first compound 0.253 µM,0.579
same,relative viability,[3]; first compound 0.8 µM,0.607
same,relative viability,[3]; first compound 2.53 µM,0.601
same,relative viability,[3]; first compound 8 µM,0.603
same,relative viability,[4]; first compound 0.08 µM,0.592
same,relative viability,[4]; first compound 0.253 µM,0.597
same,relative viability,[4]; first compound 0.8 µM,0.547
same,relative viability,[4]; first compound 2.53 µM,0.607
same,relative viability,[4]; first compound 8 µM,0.608
same,relative viability,[5]; first compound 0.08 µM,0.727
same,relative viability,[5]; first compound 0.253 µM,0.663
same,relative viability,[5]; first compound 0.8 µM,0.671
same,relative viability,[5]; first compound 2.53 µM,0.685
same,relative viability,[5]; first compound 8 µM,0.65
same,relative viability,[6]; first compound 0.08 µM,0.83
same,relative viability,[6]; first compound 0.253 µM,0.63
same,relative viability,[6]; first compound 0.8 µM,0.579
same,relative viability,[6]; first compound 2.53 µM,0.323
same,relative viability,[6]; first compound 8 µM,0.33
same,relative viability,[7]; first compound 0.08 µM,0.881
same,relative viability,[7]; first compound 0.253 µM,0.964
same,relative viability,[7]; first compound 0.8 µM,0.863
same,relative viability,[7]; first compound 2.53 µM,0.942
same,relative viability,[7]; first compound 8 µM,0.72
same,relative viability,[8]; first compound 0.08 µM,0.623
same,relative viability,[8]; first compound 0.253 µM,0.668
same,relative viability,[8]; first compound 0.8 µM,0.668
same,relative viability,[8]; first compound 2.53 µM,0.677
same,relative viability,[8]; first compound 8 µM,0.318
same,relative viability,[9]; first compound 0.08 µM,0.745
same,relative viability,[9]; first compound 0.253 µM,0.716
same,relative viability,[9]; first compound 0.8 µM,0.663
same,relative viability,[9]; first compound 2.53 µM,0.702
same,relative viability,[9]; first compound 8 µM,0.705
same,relative viability,[10]; first compound 0.08 µM,1.09
same,relative viability,[10]; first compound 0.253 µM,0.905
same,relative viability,[10]; first compound 0.8 µM,0.924
same,relative viability,[10]; first compound 2.53 µM,0.991
same,relative viability,[10]; first compound 8 µM,1.02
same,relative viability,[11]; first compound 0.08 µM,1.3
same,relative viability,[11]; first compound 0.253 µM,1.15
same,relative viability,[11]; first compound 0.8 µM,0.884
same,relative viability,[11]; first compound 2.53 µM,0.908
same,relative viability,[11]; first compound 8 µM,0.719
same,relative viability,[12]; first compound 0.08 µM,1.2
same,relative viability,[12]; first compound 0.253 µM,1.13
same,relative viability,[12]; first compound 0.8 µM,1.11
same,relative viability,[12]; first compound 2.53 µM,1.15
same,relative viability,[12]; first compound 8 µM,1.17
same,relative viability,[13]; first compound 0.08 µM,0.457
same,relative viability,[13]; first compound 0.253 µM,0.334
same,relative viability,[13]; first compound 0.8 µM,0.142
same,relative viability,[13]; first compound 2.53 µM,0.29
same,relative viability,[13]; first compound 8 µM,0.309
same,relative viability,[14]; first compound 0.08 µM,0.841
same,relative viability,[14]; first compound 0.253 µM,0.739
same,relative viability,[14]; first compound 0.8 µM,0.569
same,relative viability,[14]; first compound 2.53 µM,0.763
same,relative viability,[14]; first compound 8 µM,0.847
same,relative viability,[15]; first compound 0.08 µM,0.697
same,relative viability,[15]; first compound 0.253 µM,0.685
same,relative viability,[15]; first compound 0.8 µM,0.639
same,relative viability,[15]; first compound 2.53 µM,0.906
same,relative viability,[15]; first compound 8 µM,0.679
same,relative viability,[16]; first compound 0.08 µM,0.741
same,relative viability,[16]; first compound 0.253 µM,0.883
same,relative viability,[16]; first compound 0.8 µM,0.852
same,relative viability,[16]; first compound 2.53 µM,0.98
same,relative viability,[16]; first compound 8 µM,0.872
same,relative viability,[17]; first compound 0.08 µM,0.639
same,relative viability,[17]; first compound 0.253 µM,0.764
same,relative viability,[17]; first compound 0.8 µM,0.651
same,relative viability,[17]; first compound 2.53 µM,0.698
same,relative viability,[17]; first compound 8 µM,0.694
same,relative viability,[18]; first compound 0.08 µM,0.2
same,relative viability,[18]; first compound 0.253 µM,0.342
same,relative viability,[18]; first compound 0.8 µM,0.254
same,relative viability,[18]; first compound 2.53 µM,0.267
same,relative viability,[18]; first compound 8 µM,0.395
same,relative viability,[19]; first compound 0.08 µM,0.685
same,relative viability,[19]; first compound 0.253 µM,0.594
same,relative viability,[19]; first compound 0.8 µM,0.537
same,relative viability,[19]; first compound 2.53 µM,0.537
same,relative viability,[19]; first compound 8 µM,0.492
same,relative viability,[20]; first compound 0.08 µM,0.886
same,relative viability,[20]; first compound 0.253 µM,0.668
same,relative viability,[20]; first compound 0.8 µM,0.721
same,relative viability,[20]; first compound 2.53 µM,0.738
same,relative viability,[20]; first compound 8 µM,0.682
same,relative viability,[21]; first compound 0.08 µM,1.01
same,relative viability,[21]; first compound 0.253 µM,0.964
same,relative viability,[21]; first compound 0.8 µM,0.955
same,relative viability,[21]; first compound 2.53 µM,1.01
same,relative viability,[21]; first compound 8 µM,0.791
same,relative viability,[22]; first compound 0.08 µM,0.426
same,relative viability,[22]; first compound 0.253 µM,0.388
same,relative viability,[22]; first compound 0.8 µM,0.348
same,relative viability,[22]; first compound 2.53 µM,0.382
same,relative viability,[22]; first compound 8 µM,0.318
same,relative viability,[23]; first compound 0.08 µM,0.371
same,relative viability,[23]; first compound 0.8 µM,0.369
same,relative viability,[23]; first compound 2.53 µM,0.453
same,relative viability,[23]; first compound 8 µM,0.447
